Patent US20180265423A1, “Pesticide Dispersion in Concentrated Aqueous Fertilizer Solution” (priority 2014, published 2018)
Like-named read-outs stand apart in the source and are kept apart here.

Tests used:
[1] = Use alone, dilution with water or dispersion of the suspensions into fertilizer concentrates; format: physicochemical; conditions: 10-34-0, URAN 32, URAN 28 and 28-40% AMS
[2] = 30 wt % captan suspension in 10-34-0: flow and storage stability (Example 12); format: physicochemical
Description: (§1) 10-34-0 fertilizer (56% ammonium polyphosphate by Plant Food Company Inc.) and Phospholan PS-413 surfactant were combined in a container and mixed thoroughly. Captan fungicide was added to the mixture and then the resulting combination was homogenized. The components were added in amounts to provide a composition containing 69.3 wt % of the 10-34-0 fertilizer solution (56% solution), 1.0 wt % surfactant and 29.7 wt % Captan fungicide.

[3] = format: physicochemical; conditions: for crystal growth in the fertilizer solutions tested: review of table 2
Excerpt: Crystal formation in a suspension concentrate is a complex phenomenon. It is believed that if the solubility of the suspended solid chemical is high in the medium, the suspension concentrate is prone to form crystals of the suspended solid chemical in storage. […] The concentrations of the solid pesticides used in this example were low (at a typical ready-to-apply concentration range). If a solid pesticide forms crystals in such a low concentration, it is not suitable for a ready-to-apply pesticide suspension and mostly likely will not be suitable for a more concentrated suspension in fertilizer. […] By “not suitable” is meant that although it may work to some extent, it is not a good candidate for the pesticide SC.
Samples were prepared by adding the components followed by hand-shaking.

[4] = Quick screening of crystal growth potential in fertilizer concentrates and water, solid pesticides containing a carboxylic acid group (Example 2); format: physicochemical; conditions: for suitability for suspension in fertilizer solutions: review of table 3; for Comment: crystal growth: between 0 C. and 40 C.
Description: Samples were prepared by adding the components followed by hand-shaking. Samples were placed at 0° C. and observation was made after 1 day, unless otherwise specified.

[5] = as above; format: physicochemical; conditions: 1 wt % powder pesticide, 98 wt % 10-34-0, 1 wt % Witcolate D-510; between 0 C. and 40 C.
[6] = format: physicochemical
Description: as §1, with “poly phosphate” for “polyphosphate”, “HE-6614” for “PS-413”, “Trifloxystrobin” for “Captan”, “62.38” for “69.3”, “[…]” for “29.7”

[7] = Brookfield viscosity of 50% clothianidin in 50% URAN 32; format: physicochemical; conditions: #64 spindle
Excerpt: (§2) In other experiments, 0.3% of a pH adjusting agent (40 wt % Citric acid), was included in the SC sample (homogenized sample) and no noticeable effect was observed on stability. Viscosity measurements were made with a Brookfield viscometer at various speeds (rpm) at room temperature with a #64 spindle. This sample was very viscous but it was highly shear-thinning.

[8] = Storage stability of 40% clothianidin SC in 10-34-0 with wetting agent Witcolate D-510 (Example 5); format: physicochemical; conditions: 10-34-0 with Witcolate D-510
Description: The test samples were prepared by adding 60 grams of 10-34-0 fertilizer (from Plant Food) to a bottle. Then various amounts of Witcolate D-510 (2-ethylhexyl sulfate) were added to the 10-34-0 fertilizer and mixed well. Finally, 40 grams of clothianidin (technical grade) was added to the mixture and mixed well by shaking by hand.

[9] = Stability of 50% clothianidin in 50% URAN 32 fertilizer (Example 6); format: physicochemical
Description: 0.5 g Witcolate D-510 surfactant was added into 100 g URAN 32 fertilizer solution (50 wt % URAN 32 in water). […] Then 100 g clothianidin was added to the resulting solution and mixed well by hand-shaking. This sample was stable and had about 10% top clear with a smooth bottom suspension after 2 weeks at 40° C.
as §2

[10] = Suspension of clothianidin in 10-34-0 aqueous fertilizer, effect of concentration on stability (Example 3); format: physicochemical; conditions: review of table 4
Description: Various amounts of clothianidin were added to 10-34-0 fertilizer. Samples were shaken by hand until homogeneous.

[11] = same SC, after a week at 50° C.
[12] = 1 wt % powder pesticide in 99 wt % 10-34-0, no wetting agent
[13] = 1 wt % powder pesticide in 99 wt % 40% AMS, no wetting agent
[14] = 1 wt % powder pesticide in 99 wt % URAN 32, no wetting agent
[15] = 1 wt % powder pesticide in 99 wt % Water, no wetting agent
[16] = 1 wt % powder pesticide, 98 wt % 10-34-0, 1 wt % Witcolate D-510
[17] = powder pesticide (glyphosate acid 2, 2,4-D acid 1.3, others 1 wt %) in 10-34-0, no wetting agent
[18] = powder pesticide (glyphosate acid 2, 2,4-D acid 1.3, others 1 wt %) in 10-34-0, no wetting agent, 0° C., 1 day unless otherwise specified
[19] = powder pesticide (glyphosate acid 2, 2,4-D acid 1.3, others 1 wt %) in 40% AMS, no wetting agent, 0° C., 1 day unless otherwise specified
[20] = powder pesticide (glyphosate acid 2, 2,4-D acid 1.3, others 1 wt %) in URAN 32, no wetting agent, 0° C., 1 day unless otherwise specified
[21] = 1 wt % powder pesticide, 98 wt % 40% AMS, 1 wt % Witcolate D-510
[22] = 1 wt % powder pesticide, 98 wt % URAN 32, 1 wt % Witcolate D-510
[23] = 1 wt % powder pesticide, 98 wt % Water, 1 wt % Witcolate D-510

In the case of `O=C1C2CC=CCC2C(=O)N1SC(Cl)(Cl)Cl` (centres unmarked) [Captan], the “used alone, diluted with water, dispersed to a fertilizer concentrate” value ([1]; 29.7 wt % Captan SC in 10-34-0, gentle stirring) is reported as “without forming crystals or coagulation”, the “flow and stability of the resulting SC” value ([2]; 29.7 wt % Captan, 69.3 wt % 10-34-0 solution, 1.0 wt % Phospholan PS-413, homogenized) is reported as “easily flowable and stable” and the “flow at 2° C.” value ([2]; same SC, 2° C.) is reported as “still able to flow”. For the same molecule, the phase separation [2, 11] was “no visible phase separation”, the “Comment: powder sank or floated” value [3, 12] was 0-40 °C Powder sank and the “Comment: suitability” value [3, 12] was “Suitable”. The “Comment: powder sank or floated” value [3, 13] was 0-40 °C Powder sank, the “Comment: suitability” value [3, 13] was “Suitable” and the “Comment: powder sank or floated” value [3, 14] was 0-40 °C Powder sank. For the same molecule, the “Comment: suitability” value [3, 14] was “Suitable”, the “Comment: powder sank or floated” value [3, 15] was 0-40 °C Powder sank and the “Comment: suitability” value [3, 15] was “Suitable”. The “crystal growth in the fertilizer solutions tested” value [3] was “did not have crystal growth”.

With `O=C(O)c1nc(Cl)ccc1Cl` [Clopyralid] the “Comment: suitability” value [4, 16] was “Suitable”, the “Comment: suitability” value [4, 17] was “Suitable” and the “Comment: crystal growth or other change” value [4, 18] was “No crystal growth”. The “Comment: dissolution” value [4, 18] was “Not dissolved”, the “Comment: powder sank or floated” value [4, 18] was “Powder floated” and the “Comment: crystal growth or other change” value [4, 19] was “Crystal growth at room temp”. The “Comment: dissolution” value [4, 19] was “Not dissolved”, the “Comment: powder sank or floated” value [4, 19] was “Powder sank” and the “Comment: suitability” value ([4]; powder pesticide (glyphosate acid 2, 2,4-D acid 1.3, others 1 wt %) in URAN 32, no wetting agent) was “Not suitable”. The “Comment: dissolution” value [4, 20] was “Dissolved”, the “Comment: suitability” value ([4]; powder pesticide (glyphosate acid 2, 2,4-D acid 1.3, others 1 wt %) in Water, no wetting agent) was “Not suitable” and the “Comment: dissolution” value ([4]; powder pesticide (glyphosate acid 2, 2,4-D acid 1.3, others 1 wt %) in Water, no wetting agent, 0° C., 1 day unless otherwise specified) was “Dissolved”. The “suitability for suspension in fertilizer solutions” value [4] was “may not be suitable” and the “Comment: crystal growth” value [5] was “No crystal growth between 0 C”.

For `Nc1c(Cl)c(Cl)nc(C(=O)O)c1Cl` [Picloram], the “Comment: suitability” value [4, 16] was “some floated. Suitable”, the “Comment: powder sank or floated” value [4, 21] was “Powder sank” and the “Comment: suitability” value [4, 21] was “Suitable”. The “Comment: crystal growth” value [4, 21] was “No crystal growth between 0 C”, the “Comment: powder sank or floated” value [4, 22] was “Powder sank” and the “Comment: suitability” value [4, 22] was “Suitable”. The “Comment: crystal growth” value [4, 22] was “No crystal growth between 0 C”, the “Comment: powder sank or floated” value [4, 23] was “Powder sank” and the “Comment: suitability” value [4, 23] was “Suitable”. For the same molecule, the “Comment: crystal growth” value [4, 23] was “No crystal growth between 0 C”, the “Comment: suitability” value [4, 17] was “Suitable” and the “Comment: crystal growth or other change” value [4, 18] was “No crystal growth between 0 C”. For the same molecule, the “Comment: powder sank or floated” value [4, 18] was “Powder sank”, the “Comment: suitability” value ([4]; powder pesticide (glyphosate acid 2, 2,4-D acid 1.3, others 1 wt %) in 40% AMS, no wetting agent) was “Suitable” and the “Comment: crystal growth or other change” value [4, 19] was “No crystal growth between 0 C”. The “Comment: powder sank or floated” value [4, 19] was “Powder sank”, the “Comment: dissolution” value [4, 20] was “Powder almost dissolved” and the “suitability for suspension in fertilizer solutions” value [4] was “appears to be suitable”. For the same molecule, the “Comment: crystal growth” value [5] was “No crystal growth between 0 C”.

For `CON=C(C(=O)OC)c1ccccc1CON=C(C)c1cccc(C(F)(F)F)c1` [Trifloxystrobin], the “used alone, diluted with water, dispersed to a fertilizer concentrate” value ([1]; 36.63 wt % Trifloxystrobin SC in 10-34-0) was “without forming crystal and coagulation”, the “flow and stability of the resulting SC” value [6] was “easily flowable and stable” and the “flow at 2° C.” value ([6]; same SC, 2° C.) was “still able to flow”. The “clear phase at the bottom” value [6, 11] was “less than 2.5%”, the re-mixing ([6]; same SC, after a week at 50° C., inverting the container) was “remixed easily” and the “Comment: powder sank or floated” value [3, 12] was 0-40 °C Powder sank. For the same molecule, the “Comment: suitability” value [3, 12] was “Suitable”, the “Comment: powder sank or floated” value [3, 13] was 0-40 °C Powder sank and the “Comment: suitability” value [3, 13] was “Suitable”. The “Comment: powder sank or floated” value [3, 14] was 0-40 °C Powder sank, the “Comment: suitability” value [3, 14] was “Suitable” and the “Comment: powder sank or floated” value [3, 15] was 0-40 °C Powder sank. The “Comment: suitability” value [3, 15] was “Suitable” and the “crystal growth in the fertilizer solutions tested” value [3] was “did not have crystal growth”.

With `CN/C(=N\[N+](=O)[O-])NCc1cnc(Cl)s1` [clothianidin] the “Viscosity, mPa-s, 24° C.” value ([7]; 1 RPM) was 10200 mPa-s, the “Viscosity, mPa-s, 24° C.” value ([7]; 2 RPM) was 6900 mPa-s and the “Viscosity, mPa-s, 24° C.” value ([7]; 4 RPM) was 3900 mPa-s. The “Viscosity, mPa-s, 24° C.” value ([7]; 10 RPM) was 2300 mPa-s, the “Viscosity, mPa-s, 24° C.” value ([7]; 20 RPM) was 1500 mPa-s and the “Viscosity, mPa-s, 24° C.” value ([7]; 50 RPM) was 1300 mPa-s. The “Viscosity, mPa-s, 24° C.” value ([7]; 100 RPM) was 1200 mPa-s, the “clothianidin concentration above which the SC was difficult to prepare” value [8] was “greater than 40 wt %” and the stability ([9]; 100 g clothianidin, 100 g URAN 32 fertilizer solution, 0.5 g Witcolate D-510, hand-shaking) was “stable”. The “behaviour of the solid in URAN 32” value ([9]; URAN 32, all concentrations) was “sank to the bottom at all concentrations”, the “clothianidin concentration above which a paste resulted” value ([9]; URAN 32 system) was “higher than 55 wt %” and the separation ([9]; same composition, homogenization method) was “did not show noticeable separation”. The top clear ([9]; same sample, hand-shaking, after 2 weeks at 40° C.) was “about 10%” and the “suspension of the powder in 10-34-0” value [10] was “without crystal formation and without coagulation”.
